Laboratory results published in US20230192789A1, “STRUCTURALLY-STABILIZED AND HDMX-SELECTIVE P53 PEPTIDES AND USES THEREOF” (Dana-Farber Cancer Institute, Inc., priority 2020, published 2023).
Entries after “also recorded” stand apart in the source; their conditions may differ. Bridges are numbered along the chain shown (N, C = ends). [ ]: non-standard residue; d: D form. The star is where a group is joined. Biotin = O=C1N[C@H]2[C@H](CS[C@H]2CCCCC(=O)*)N1; R8 = C=CCCCCCC[C@@](C)(N)C(=O)O; S5 = C=CCCC[C@](C)(N)C(=O)O

T1: recombinant HDMX (amino acids 1-490 of SEQ ID NO:104) (Homo sapiens, UniProt O15151)
T1 construct: thioredoxin (N, cleaved yes); S tag (N, cleaved yes); hexahistidine (N, cleaved yes); made in house; host or cells: E. coli (inferred: pET32-LIC vector, handled as described for HDM2 in BL21(DE3))
T1 sequence (O15151 1-490): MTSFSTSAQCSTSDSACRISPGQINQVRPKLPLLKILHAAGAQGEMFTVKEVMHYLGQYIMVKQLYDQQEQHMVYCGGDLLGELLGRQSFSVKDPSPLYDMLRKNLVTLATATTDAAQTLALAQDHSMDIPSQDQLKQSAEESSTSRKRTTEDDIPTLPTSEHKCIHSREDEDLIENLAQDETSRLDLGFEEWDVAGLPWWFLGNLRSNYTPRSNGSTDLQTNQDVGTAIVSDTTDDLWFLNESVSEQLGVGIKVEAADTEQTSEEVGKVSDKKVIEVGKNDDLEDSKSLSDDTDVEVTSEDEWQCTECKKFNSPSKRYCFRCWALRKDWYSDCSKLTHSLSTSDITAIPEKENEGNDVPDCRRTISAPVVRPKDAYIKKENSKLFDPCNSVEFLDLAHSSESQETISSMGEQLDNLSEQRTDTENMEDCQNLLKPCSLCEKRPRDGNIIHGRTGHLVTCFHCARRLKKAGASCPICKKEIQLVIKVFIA


Columns and labels:
[1] = target: T1, recombinant HDMX (amino acids 1-490 of SEQ ID NO:104); test: Competitive streptavidin pull-down of biotinylated peptides with 1:1 recombinant HDM2/HDMX mixture, HDMX western; format: binding; details: biotinylated stapled peptide, 1:1 mixture of recombinant HDM2 and HDMX
EOL-1 cancer cells = test: Cell viability, EOL-1; details: EOL-1, 48 and 72 hours of treatment, acetylated stapled peptide
OCI-AML2 cells [2] = test: Cell viability (CellTiter-Glo), OCI-AML2; details: OCI-AML2, 48 and 72 hours of treatment, acetylated stapled peptide
OCI-AML2 cells [3] = test: LDH release assay, OCI-AML2; format: cell-based; details: OCI-AML2, 90 minutes after peptide treatment, highest dosing level
Description: (§1) LDH release assay: To assess the release of lactate dehydrogenase (LDH) upon treatment with a structurally-stabilized peptide described herein, an LDH release assay can be used. Cultured cells, including, e.g., cancer cells and HUVEC cells, are plated in 96-well format (2x10^4 cells per well; including overnight incubation for adherent cells) and then treated with serial dilutions of structurally-stabilized peptides in a final volume of 100 µL and incubated at 37° C. for the indicated time period (e.g., 90 minutes). The plates are spun down at 1500 rpm for 5 minutes at 4° C., and 80 µL of cell culture media is transferred to a clear plate (Corning), incubated with 80 µL of LDH reagent (Roche) for 15 minutes while shaking, and absorbance is measured at 490 nm on a microplate reader (SpectraMax M5 Microplate Reader, Molecular Devices).
(§2) LDHRelease Assay: OCI-AML2 cells (1 × 10^4 cells/well) were plated in 96-well plates and treated with the indicated peptides or vehicle (0.2% DMSO). After 1.5 hours incubation at 37° C., 100 µl of cell medium was transferred to a 96-well clear plate and incubated with 100 µl of LDH reagent (Roche) for 25 minutes while shaking, and absorbance at 490 nm measured on a microplate reader (SpectraMax M5 Microplate Reader, Molecular Devices).

EOL-1 cells = test: LDH release assay, EOL-1; format: cell-based; details: EOL-1, 90 minutes after peptide treatment, highest dosing level
Description: as §1, §2

[4] = target: T2, recombinant HDM2 (amino acids 17-125 of SEQ ID NO:103) (human, UniProt Q00987 17-125); test: streptavidin pull-down of biotinylated peptide with recombinant HDM2 and HDMX (1:1 mixture per paragraph 301), western blot
T2 construct: also called MDM2; not shown: thrombin cleavage site (pET28a vector)
T2 sequence (Q00987 other isoform, or with tags, fused parts or gaps): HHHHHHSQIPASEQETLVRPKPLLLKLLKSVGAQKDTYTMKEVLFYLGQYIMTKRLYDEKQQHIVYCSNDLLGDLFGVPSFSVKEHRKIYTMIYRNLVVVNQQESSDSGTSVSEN

Row | Molecule | HDMX versus HDM2 binding selectivity [1] | cancer cell cytotoxicity (EOL-1 cancer cells) | cancer cell cytotoxicity (OCI-AML2 cells [2]) | non-specific membrane disruption (LDH release) (OCI-AML2 cells [3]) | non-specific membrane disruption (LDH release) (EOL-1 cells) | binding result [4]
1 | COC(=O)CC[C@@H]1NC(=O)[C@H](CCC(N)=O)NC(=O)[C@H](C)NC(=O)[C@H](Cc2c[nH]c3ccccc23)NC(=O)[C@H](Cc2ccc(O)cc2)NC(=O)[C@H](CCC(=O)O)NC(=O)[C@](C)(NC(=O)[C@H](Cc2ccccc2)NC(=O)[C@@H](NC(=O)[C@H](CC(C)C)NC(C)=O)[C@@H](C)O)CCCCCCC=CCCC[C@@](C)(C(=O)N[C@@H](CO)C(=O)N[C@@H](C)C(=O)N[C@@H](C)C(N)=O)NC1=O [ATSP-7041 B26E(OMe), LTF8EYWAQ#XSAA] | selectivity to HDMX | dose-responsive cancer cell cytotoxicity; also recorded: enhance killing activity | dose-responsive cancer cell cytotoxicity; also recorded: enhance killing activity | no non-specific membrane disruptive activity | no non-specific membrane disruptive activity | –
2 | Biotin-QSQQTF[R8]NLWRLE[S5]QN-NH2 (staple 7-14, also called QSQQTF8NLWRLEXQN) [SAH-p53-8 L26E] | – | – | – | – | – | no binding
